“And” between values parts separate entries of the source, which are not always exact repeats. Equal values may be shown once.

Data set [1] is described as follows: Plasma concentration after administration to rabbits of 10 mg/kg PO. Conditions: rabbit; for Cmax: read-out: Maximum plasma concentration; for half-life: read-out: time for plasma concentration to fall to 50% of maximum value obtained after administration (converted). Type of data set: in vivo. The procedure:
A. Maximum plasma concentration obtained after administration to rabbits of 10 mg/kg PO and time for plasma concentration to fall to 50% of maximum value obtained after administration

Data set [2] deals with stimulated LTB4 synthesis. As to the kind of experiment: Stimulated LTB4 synthesis ex vivo after administration to rabbits of 10 mg/kg PO. Type of data set: in vivo. The procedure: B. Time for stimulated LTB4 synthesis ex vivo to return to 50% of original value after administration to rabbits of 10 mg/kg PO
For data set [3], the target named is T1, 5-lipoxygenase (5-LO) (Homo sapiens, UniProt P09917).
T1 construct: The leukocytes were homogenised and 5 μM arachidonic acid added; from tissue; host or cells: homogenised blood leukocytes of normal aspirin-free volunteers
T1 sequence (P09917 1-674): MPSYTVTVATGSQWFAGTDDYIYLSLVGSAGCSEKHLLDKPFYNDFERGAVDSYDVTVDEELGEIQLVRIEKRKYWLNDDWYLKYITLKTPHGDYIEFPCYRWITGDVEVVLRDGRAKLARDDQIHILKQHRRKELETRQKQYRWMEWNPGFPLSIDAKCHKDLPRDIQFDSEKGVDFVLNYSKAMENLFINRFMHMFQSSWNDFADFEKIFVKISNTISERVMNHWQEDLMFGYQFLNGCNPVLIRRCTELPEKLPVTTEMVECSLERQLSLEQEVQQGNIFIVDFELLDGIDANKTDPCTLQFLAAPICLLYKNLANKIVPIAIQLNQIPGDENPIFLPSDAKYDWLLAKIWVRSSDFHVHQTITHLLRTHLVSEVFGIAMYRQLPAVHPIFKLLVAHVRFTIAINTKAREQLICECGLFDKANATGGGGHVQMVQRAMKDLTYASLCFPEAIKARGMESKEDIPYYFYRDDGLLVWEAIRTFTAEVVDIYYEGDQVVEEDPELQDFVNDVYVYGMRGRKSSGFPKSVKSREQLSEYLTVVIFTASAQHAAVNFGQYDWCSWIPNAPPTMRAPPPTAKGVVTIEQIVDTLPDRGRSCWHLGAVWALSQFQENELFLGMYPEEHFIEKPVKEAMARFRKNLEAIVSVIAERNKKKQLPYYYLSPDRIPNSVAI
As to the kind of experiment: In vitro inhibition of 5-lipoxygenase in homogenised leukocytes (LTB4 radioimmunoassay). Type of data set: biochemical. The settings on record: homogenised leukocytes of aspirin-free volunteers, 5 μM arachidonic acid, 37° C., 5 minutes. The procedure:
(§1) C. In vitro inhibition of 5-lipoxygenase (5-LO) and cyclo-oxygenase (CO) Blood from normal aspirin-free volunteers was centrifuged to separate leukocytes from red cells and platelets. The leukocytes were homogenised and 5 μM arachidonic acid added, followed by incubation at 37° C. for 5 minutes. The reaction was stopped by boiling and radioimmunoassays conducted for LTB4 and TXB2. Results were calculated as IC50 (μM) activity against each enzyme.

In data set [4] the target is T2, cyclo-oxygenase (CO) (Homo sapiens, UniProt P23219).
T2 construct: The leukocytes were homogenised and 5 μM arachidonic acid added; from tissue; host or cells: homogenised blood leukocytes of normal aspirin-free volunteers
As to the kind of experiment: In vitro inhibition of cyclo-oxygenase in homogenised leukocytes (TXB2 radioimmunoassay). Type of data set: biochemical. Conditions: homogenised leukocytes of aspirin-free volunteers, 5 μM arachidonic acid, 37° C., 5 minutes. The procedure:
as §1

T2 sequence (P23219 24-599): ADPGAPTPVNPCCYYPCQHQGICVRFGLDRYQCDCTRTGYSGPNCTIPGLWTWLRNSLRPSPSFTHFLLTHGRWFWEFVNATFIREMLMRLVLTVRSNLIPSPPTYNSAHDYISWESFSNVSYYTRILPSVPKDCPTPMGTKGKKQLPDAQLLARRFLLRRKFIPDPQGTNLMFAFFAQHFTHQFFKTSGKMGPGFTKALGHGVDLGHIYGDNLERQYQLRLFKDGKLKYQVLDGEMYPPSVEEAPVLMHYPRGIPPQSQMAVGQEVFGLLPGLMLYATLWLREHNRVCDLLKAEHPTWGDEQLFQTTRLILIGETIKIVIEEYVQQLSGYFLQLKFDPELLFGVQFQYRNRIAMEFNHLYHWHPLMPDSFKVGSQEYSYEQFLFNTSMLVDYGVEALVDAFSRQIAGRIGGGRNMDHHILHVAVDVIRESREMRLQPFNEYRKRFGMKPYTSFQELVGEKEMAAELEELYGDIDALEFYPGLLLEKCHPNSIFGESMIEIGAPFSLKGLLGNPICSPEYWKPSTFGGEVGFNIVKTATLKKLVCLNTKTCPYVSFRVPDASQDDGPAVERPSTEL

For the compound `CC(=O)N(O)C(C)/C=C/c1cccc(Oc2ccccc2)c1` (stereo not drawn) [(E)-N-[1-methyl-3-(3-phenoxyphenyl)prop-2-enyl]acetohydroxamic acid], in data set [1], the Cmax worked out at 460 ng/mL and the half-life was 10.7 h. Moreover, the “Time for stimulated LTB4 synthesis ex vivo to return to 50% of original value” (“Time … to 50% of original value” below) in data set [2] amounted to 22.6 h. This compound displayed an IC50 in data set [3] of 0.08 µM. In data set [4], this compound registered a concentration for half-maximal inhibition (IC50) of 1 µM.

`CC(=O)N(O)C/C=C/c1cccc(Oc2ccccc2)c1` [(E)-N-[3-(3-phenoxyphenyl)prop-2-enyl]acetohydroxamic acid, reference compound] gave a half-inhibitory concentration (IC50) in data set [4] of 1 µM.

In the case of `CC(=O)N(O)C(C)/C=C/c1cccc(Oc2ccc(F)cc2F)c1` (stereo not drawn) [(E)-N-{1-Methyl-3-[3-(2,4-difluorophenoxy)phenyl]prop-2-enyl}acetohydroxamic acid], the “Time … to 50% of original value” in data set [2] amounted to 20.7 h.

For the compound `CC(=O)N(O)C(C)/C=C/c1cccc(Oc2cc(Cl)cc(Cl)c2)c1` (stereo not drawn) [(E)-N-{1-Methyl-3-[3-(3,5-dichlorophenoxy)phenyl]prop-2-enyl}acetohydroxamic acid], in data set [1], the Cmax worked out at 1900 ng/mL and the half-life was above 24 h. Further, the “Time … to 50% of original value” in data set [2] is on record as above 24 h. This compound yielded a half-maximal inhibitory concentration (IC50) in data set [3] of 0.4 µM.

With `CC(=O)N(O)C(C)/C=C/c1cccc(Oc2cccc(C(F)(F)F)c2)c1` (stereo not drawn) [(E)-N-{1-Methyl-3-[3-(3-trifluoromethylphenoxy)phenyl]prop-2-enyl}acetohydroxamic acid], in data set [1], the Cmax is 840 ng/mL. Moreover, the half-life in data set [1] is above 24 h. Moreover, in data set [2], the “Time … to 50% of original value” is above 24 h. Besides, the results for the 50% inhibitory concentration (IC50) in data set [3] and in data set [4] were 0.11 µM and above 1 µM, respectively.

Take `CC(=O)N(O)C(C)/C=C/c1cccc(Oc2ccc(Br)cc2)c1` (stereo not drawn) [(E)-N-{1-Methyl-3-[3-(4-bromophenoxy)phenyl]prop-2-enyl}acetohydroxamic acid]: in data set [1], the Cmax worked out at 710 ng/mL and the half-life was above 24 h. Moreover, the “Time … to 50% of original value” in data set [2] is reported as above 24 h. Besides, the IC50 in data set [3] was 0.01 µM. The compound further returned a 50% inhibitory concentration (IC50) in data set [4] of 0.18 µM.

Regarding `CC(=O)N(O)C(C)/C=C/c1cccc(Oc2ccc(C)cc2)c1` (stereo not drawn) [(E)-N-{1-Methyl-3-[3-(4-methylphenoxy)phenyl]prop-2-enyl}acetohydroxamic acid], in data set [1], the Cmax came out at 70 ng/mL and the half-life was 4.3 h.

In the case of `CC(=O)N(O)C(C)/C=C/c1cccc(Oc2ccc(C(C)(C)C)cc2)c1` (stereo not drawn) [(E)-N-{1-Methyl-3-[3-(4-t-butylphenoxy)phenyl]prop-2-enyl}acetohydroxamic acid], in data set [1], the Cmax is 160 ng/mL and the half-life is above 24 h. Further, the “Time … to 50% of original value” in data set [2] is 2.4 h. In data set [3], the half-inhibitory concentration (IC50) turned out to be 0.5 µM.

As for `CC(=O)N(O)C(C)/C=C/c1cccc(Oc2ccc(Cl)cc2)c1` (stereo not drawn) [(E)-N-{1-methyl-3-[3-(4-chlorophenoxy)phenyl]prop-2-enyl}acetohydroxamic acid], in data set [1], the Cmax worked out at 930 ng/mL and the half-life was above 24 h. In addition, the “Time … to 50% of original value” in data set [2] is listed as above 24 h. The compound further showed an IC50 in data set [3] of 0.08 µM. Moreover, in data set [4], the IC50 was above 1 µM.

On to `CC(=O)N(O)C(C)/C=C/c1cccc(Oc2ccc(F)cc2)c1` (stereo not drawn) [(E)-N-{1-methyl-3-[3-(4-fluorophenoxy)phenyl]prop-2-enyl}acetohydroxamic acid], for which, in data set [1], the Cmax was 1070 ng/mL and the half-life is 11.3 h. Besides, the “Time … to 50% of original value” in data set [2] came to 24.0 h. In addition, the half-maximal inhibitory concentration (IC50) in data set [3] is 0.2 µM and 0.3 µM.
